Data from patent US10632181B2, “Composition, containing RGD motif-containing peptide or fragment thereof, for treating burns and glaucoma, alleviating skin wrinkles, and promoting hair growth” (HUONS CO., LTD., priority 2014, dated 2020).
Positions of bridges follow the written chain, without caps; N, C: chain ends. No end group written: not given here.

Experiments:
[1] = tested on: glaucoma animal model having microbead-induced elevated intraocular pressure; test: Glaucoma test: intraocular pressure; format: in vivo, mouse; conditions: for intraocular pressure change: 20 ug/ml applied to eye once daily
Procedure: (§1) For control drug, Taflotan eye drops (Santen Pharmaceutical Co., Ltd.) were used, and for test drug, Taflotan eye drops+HU024 (SEQ ID NO:2) (sample 1), HU024 (SEQ ID NO:2) (sample 2), HU025 (SEQ ID NO:3) (sample 3), HU026 (SEQ ID NO:4) (sample 4), and HU027 (SEQ ID NO:5) (sample 5) were used, and testing was performed on glaucoma animal model having microbead-induced elevated intraocular pressure. In experimental animal model, Rompun solution for injection and zoletil were mixed and used to put the experimental animal under anesthesia, topical anesthetic Alcaine was applied to eye, 1×106 microbead/mL 1 μL was injected into anterior chamber using micro glass needle to induce an increase in intraocular pressure for 2 weeks (IOVS 2011 Vol. 52 36-).
(§2) The control drug and 5 samples were provided to the experimental animal having the elevated intraocular pressure for 2 weeks, 5 samples were applied to eye once daily, comparative verification of efficacy was performed, and intraocular pressure reduction and optic nerve cell in the retina was observed through administration for 4 weeks.
(§3) The intraocular pressure was measured using a contact-type intraocular pressure meter Tono lab's tonometer TV02 model. […] In 5-7 days after fluorescent probe injection, the eye was enucleated and fixed in 4% paraformaldehyde at room temperature for 4 hours. The retina was separated from choroid of the fixed eye and mounted on a slide. In each experimental group slide, optic nerve cell expressing fluorescence was detected using fluorescence microscope, images were taken at a magnification of ×40 and ×200, and data was collected.

[2] = tested on: optic nerve cell in the retina of glaucoma animal model; test: Glaucoma test: optic nerve cell in the retina (Fluorogold); format: in vivo, mouse; conditions: applied to eye once daily, Fluorogold labelling
Procedure: as §1, §2, §3

[3] = tested on: hair growth of C57BL/6 mouse; test: Hair growth test: hair growing area; format: in vivo
Procedure: (§4) This test was conducted to assess the influence on hair growth of C57BL/6 mouse when 4 types of test substances, HU024 (SEQ ID NO:2), HU025 (SEQ ID NO:3), HU026 (SEQ ID NO:4), and HU027 (SEQ ID NO:5), were applied to the skin for 14 days.
(§5) The group design was set to negative control (sterile water for injection G1), test substance HU024 (SEQ ID NO:2) 20 ug/head/day (G2), test substance HU024 (SEQ ID NO:2) 60 ug/head/day (G3), test substance HU025 (SEQ ID NO:3) 20 ug/head/day (G4), test substance HU025 (SEQ ID NO:3) 60 ug/head/day (G5), test substance HU026 (SEQ ID NO:4) 20 ug/head/day (G6), test substance HU026 (SEQ ID NO:4) 60 ug/head/day (G7), test substance HU027 (SEQ ID NO:5) 20 ug/head/day (G8), test substance HU027 (SEQ ID NO:5) 60 ug/head/day (G9) and positive control minoxyl 3% (G10) administered groups. Each group had 10 animals.
(§6) After the animal was put under anesthesia using zoletil (1 mL/kg, i.p), the back of the animal was primarily shaved using a depilator, and Veet depilatory was evenly applied on the back. After about 5 minutes, the applied site was cleaned up using gauze moistened with sterile water for injection. Only animal whose shaved back was scarlet in color was used for group separation. The test substance was applied to the same site daily once per day, 7 times per week for 14 days, and the test substance was evenly applied to the shaved site (on the back) by rubbing with a glass rod about 10 times.
The hair growing area (%) relative to the test substance-applied area was measured and determined, and Image analyzer program (Image Pro Plus ver. 6.3, Cybermetics, USA) was used to measure. […] Imaging was performed together with the measurements on the date when the hair area was measured. On the next day after the end of application, the animals were killed by CO2 gas, and hair on the hair growing area was removed by a depilator and hair weight was measured.
(§7) The measurement results were analyzed using SPSS (ver. 10.1K), Duncan t-test for weight changes was conducted through one-way analysis of variance, hair weight was compared between groups using Student's t-test, and hair growing area was compared between groups through nonparametric multiple comparison procedures Whitney-Mann methods. P<0.05 was determined to be statistically significant.

[4] = tested on: hair growth of C57BL/6 mouse; test: Hair growth test: hair weight; format: in vivo
Procedure: as §4, §5, §6
The hair growing area (%) relative to the test substance-applied area was measured and determined, and Image analyzer program (Image Pro Plus ver. 6.3, Cybermetics, USA) was used to measure. It was measured on the 1st, 3rd, 7th, 10th and 14th days after test substance administration. Imaging was performed together with the measurements on the date when the hair area was measured. On the next day after the end of application, the animals were killed by CO2 gas, and hair on the hair growing area was removed by a depilator and hair weight was measured.
as §7

[5] = Hair growth test: body weight; format: in vivo; conditions: skin
Procedure: as §4, §5, §6
The test item was measurements of dead animal, general syndrome, weight change, hair growing area and hair weight, and comparison with negative control was conducted.
as §7

Compound | optic nerve cell death / protection [2] | HAIR AREA (%) ([3]; 20 ug/head/day, Day 1) | HAIR AREA (%) ([3]; 20 ug/head/day, Day 4) | HAIR AREA (%) ([3]; 20 ug/head/day, Day 7) | HAIR AREA (%) ([3]; 20 ug/head/day, Day 10) | HAIR AREA (%) ([3]; 20 ug/head/day, Day 14) | HAIR AREA (%) ([3]; 60 ug/head/day, Day 1) | HAIR AREA (%) ([3]; 60 ug/head/day, Day 4) | HAIR AREA (%) ([3]; 60 ug/head/day, Day 7) | HAIR AREA (%) ([3]; 60 ug/head/day, Day 10) | HAIR AREA (%) ([3]; 60 ug/head/day, Day 14) | HAIR WEIGHTS ([4]; 20 ug/head/day for 14 days) | HAIR WEIGHTS ([4]; 60 ug/head/day for 14 days) | BODY WEIGHTS ([5]; 20 ug/head/day, Day 1) | BODY WEIGHTS ([5]; 20 ug/head/day, Day 7) | BODY WEIGHTS ([5]; 20 ug/head/day, Day 11) | BODY WEIGHTS ([5]; 60 ug/head/day, Day 1) | BODY WEIGHTS ([5]; 60 ug/head/day, Day 7) | BODY WEIGHTS ([5]; 60 ug/head/day, Day 11) | intraocular pressure change [1] | further results
CC(C)OC(=O)CCC/C=C\C[C@@H]1[C@@H](/C=C/C(F)(F)COc2ccccc2)[C@H](O)C[C@@H]1O [Tafluprost, reference compound] | protection from optic nerve cell death was observed |  |  |  |  |  |  |  |  |  |  |  |  |  |  |  |  |  |  |  | intraocular pressure numerical value ([1]; positive control, eye drops): 15.9±2.9 mmHg; intraocular pressure reduction as compared to negative control ([1]; positive control, eye drops): 20.89%
HU026 (TRGDCDLPEFCP; disulfide 5-11; listed as Homo sapiens) | protection from optic nerve cell death was observed | 0.10 ± 0.05% | 0.13 ± 0.07% | 0.43 ± 0.30% | 7.67 ± 4.54% | 56.64 ± 12.26% | 0.07 ± 0.04% | 0.22 ± 0.13% | 0.69 ± 0.37% | 13.54 ± 4.75% | 65.41 ± 11.62% | 0.021 ± 0.008 g | 0.026 ± 0.007 g | 21.20 ± 0.77 g | 22.48 ± 1.12 g | 23.75 ± 1.27 g | 21.58 ± 0.61 g | 22.80 ± 1.03 g | 23.83 ± 1.30 g | the intraocular pressure did not reduce | 
NH2—RPTRGDCDLPEFCPG—COOH (H-RPTRGDCDLPEFCPG-OH; cysteine pairing not given here; listed as Homo sapiens) [HU025] | protection from optic nerve cell death was observed | 0.04 ± 0.03% | 0.06 ± 0.05% | 0.47 ± 0.22% | 2.04 ± 0.66% | 39.88 ± 8.74% | 0.04 ± 0.04% | 0.42 ± 0.33% | 0.72 ± 0.51% | 19.61 ± 9.01 % | 75.45 ± 6.65 % | 0.005 ± 0.002 g | 0.021 ± 0.007 g | 21.20 ± 1.23 g | 22.63 ± 1.01 g | 23.77 ± 1.17 g | 21.53 ± 0.63 g | 23.20 ± 0.83 g | 24.23 ± 1.02 g | had an effect in reducing the intraocular pressure | intraocular pressure change ([1]; listed as sample 3): A reduction in intraocular pressure was observed
NH2—RPTRGDCDL—COOH (H-RPTRGDCDL-OH; listed as Homo sapiens) [HU027] |  | 0.13 ± 0.13% | 0.32 ± 0.14% | 0.44 ± 0.17% | 8.81 ± 3.57% | 56.95 ± 9.83% | 0.17 ± 0.11% | 0.33 ± 0.22% | 0.50 ± 0.26% | 8.20 ± 3.43% | 61.95 ± 11.30% | 0.010 ± 0.003 g | 0.016 ± 0.005 g | 21.71 ± 0.59 g | 23.27 ± 0.71 g | 23.98 ± 0.79 g | 21.77 ± 0.87 g | 23.07 ± 1.13 g | 23.97 ± 1.14 g |  | 
